Patent US20090142364A1, “Method for finding novel peptide immunostimulatory adjuvants, compositions and methods of use” (priority 2007, published 2009)
Where a SMILES comes first, the peptide text is derived from it.

Tested on: antibody response to ovalbumin
Experiment: Adjuvant activity: antibody response to ovalbumin in mice, titer by solid-phase ELISA
Type: in vivo, Balb/c mice
Details: for Adjuvant index / Anti-ovalbumin antibody titer: i.p.
Description: To study the adjuvant activity of RN-peptide, Balb/c mice were immunized with ovalbumin in saline in the presence of the RN-peptide, its analogs or GMDP, or without any adjuvant (control). The adjuvant was introduced on first immunization, whereas second immunization was carried out with half dose of OVA without adjuvant.
Adjuvant activity. Groups of 5 Balb/c mice were administered i.p. with 2.5-10 μg ovalbumin (Sigma, USA) per mouse in 200 μl PBS. RN-peptide (0.1-100 μg) or GMDP (1-100 μg) was introduced simultaneously with ovalbumin on first immunization. The second immunization was carried out 28 days later with half dose of ovalbumin (1.25-5.0 μg/200 μl) without adjuvant. Control mice received ovalbumin twice without adjuvant. Three days after the second immunization mice were bled from the tail vein. […] Control mice received polysaccharide without any adjuvant. Five and ten days after immunization mice were bled.
The antibody titer was evaluated by solid-phase ELISA as described by Douillard and Hoffman (1983) Enzyme-linked immunosorbent assay for screening monoclonal antibody production using enzyme-labeled second antibody. The antigen (ovalbumin or polysaccharide), 5 μg/ml in bicarbonate buffer, pH 8.6 (100 μl), was introduced into wells of 96-well microtiter plate. Incubation was carried out overnight at 4° C. The plate was washed 5 times with PBS and 5 times with PBS/0.1% Tween-20 (PBS-T). Remaining binding sites were blocked with 1% gelatin in PBS (2 h, room temperature). After washing 100 μl of mouse serum (1:100 dilution) was added, and serial three-fold dilutions were made. Bound antibodies were visualized by incubation with Horse-Radish-Peroxidase (HRP)-conjugated rabbit anti-mouse antibodies and OPD as the chromogenic substrate.

[1] = adjuvant 0.1 μg, ovalbumin 2.5 μg then 1.25 μg
[2] = adjuvant 1 μg, ovalbumin 2.5 μg then 1.25 μg
[3] = adjuvant 1 μg, ovalbumin 10 μg then 5 μg
[4] = adjuvant 10 μg, ovalbumin 2.5 μg then 1.25 μg
[5] = adjuvant 10 μg, ovalbumin 10 μg then 5 μg
[6] = adjuvant 100 μg, ovalbumin 2.5 μg then 1.25 μg
[7] = adjuvant 100 μg, ovalbumin 10 μg then 5 μg

CC[C@H](C)[C@H](NC(=O)[C@H](CCCCN)NC(=O)[C@H](C)NC(=O)[C@H](Cc1c[nH]cn1)NC(=O)[C@H](Cc1ccc(O)cc1)NC(=O)[C@H](CCCNC(=N)N)NC(=O)[C@@H]1CCCN1C(=O)[C@@H]1CCCN1C(=O)[C@@H](NC(=O)[C@@H](N)CCCNC(=N)N)C(C)C)C(=O)N[C@@H](CO)C(=O)N1CCC[C@H]1C(=O)N[C@@H](CCSC)C(=O)N[C@H](C(=O)N[C@@H](CC(N)=O)C(=O)O)C(C)C [RN-peptide, RVPPRYHAKISPMVN] (H-RVPPRYHAKISPMVN-OH)
adjuvant dose of highest response (2.5 μg OVA): 10 µg
anti-ovalbumin antibody titer (in words) (100 μg/mouse): diminished
Adjuvant index [1]: 0.92 ± 0.04
Anti-ovalbumin antibody titer [1]: 2250 ± 100
Adjuvant index [2]: 1.75 ± 0.06
Anti-ovalbumin antibody titer [2]: 4300 ± 150
Adjuvant index [3]: 7.3 ± 0.08
Anti-ovalbumin antibody titer [3]: 43500 ± 400
Adjuvant index [4]: 7.55 ± 0.06
Anti-ovalbumin antibody titer [4]: 19000 ± 200
Adjuvant index [5]: 2.6 ± 0.05
Anti-ovalbumin antibody titer [5]: 15700 ± 280
Adjuvant index [6]: 0.8 ± 0.008
Anti-ovalbumin antibody titer [6]: 2000 ± 20
Adjuvant index [7]: 0.9 ± 0.03
Anti-ovalbumin antibody titer [7]: 5400 ± 200
adjuvant dose at which antibody titer peaked (first immunization with 5-10 μg of OVA): 1 μg/mouse
adjuvant activity (in words) (ovalbumin in mice): strongly enhanced antibody response
anti-ovalbumin antibody titer relative to the titer of control serum (under optimal conditions): 6.5-7.5 times
